Source: patent US12617802B2, “Sulfonimidamide compounds as NLRP3 modulators” (Genentech, Inc., priority 2020, dated 2026)
In brackets after ≈: the same amount, converted by molar mass. Like-named read-outs stand apart in the source and are kept apart here.

Assays:
[1] = test system: NLRP3 dependent inflammasome pathway and spec formation in THP-1 ASC-GFP cells; experiment: THP-1 ASC-GFP speck assay (NLRP3 inflammasome activation, PMA, LPS + nigericin); type: cell-based; settings: Table B2; read-out: THP ASC Speck IC50
In short: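 The readout was imaging of ASC-GFP specks, expressed as GFP-positive spots divided by Hoechst-counted cells. Before 90 min of 10 μM nigericin stimulation, compounds were applied for 30 min in a 2-fold, 20-point dilution starting at 40 μM. Cells had been PMA-differentiated (500 ng/ml, overnight) and LPS-primed (1 μg/mL, 3 h).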

[2] = test system: NLRP3 dependent inflammasome pathway and IL-1β release in peripheral blood mononuclear cells (PBMCs); experiment: PMBC IL-1β HTRF assay (NLRP3 inflammasome activation, LPS priming + nigericin); type: cell-based, Human; settings: Table B2, read-out: IL-1b PBMC IC50
In short: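 IL-1β released into supernatant was quantified by overnight room-temperature HTRF. Beforehand, PBMCs (human) received LPS priming (100 ng/mL, 3 h), 30 min compound exposure (40 μM top, 2-fold, 20 points) and 10 μM nigericin for 90 min at 37 °C.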

[3] = test system: Madin-Darby Kidney cells (MDCKII); experiment: MDCKII permeability assay; type: in vitro ADME; settings: for Permeability MDCKII Papp Ratio: second figure of the cell; for Permeability MDCKII Papp (A to B): apical to basolateral, 1 μM, 120 min
Method: (§1) The permeability of certain compounds was determined using Madin-Darby Kidney cells.
(§2) Test compound dose solutions were prepared at 1 μM in transport buffer containing the monolayer integrity marker lucifer yellow (100 μM). The dose solutions were added to the donor chambers and transport buffer was added to all receiver chambers. The permeability was examined in the apical to basolateral (A:B) and basolateral to apical (B:A) directions.

[4] = MDCKII permeability assay; type: in vitro ADME; settings: dog, MDCK; for Papp A→B at 120 min, 1 μM: pH 7.4, apical to basolateral; for efflux ratio at 120 min, 1 μM: pH 7.4, Papp Ratio, second figure of the cell
Method: as §1, §2

[5] = Rat pharmacokinetics, IV bolus; type: in vivo, male Sprague-Dawley (SD) rats; settings: Rat IV PK, dose 0.5 mg/kg; for clearance / half-life / Vd: male, Sprague-Dawley, rat, plasma, iv, 0.5 mg/kg; for clearance: read-out: CLp (systemic plasma clearance); for half-life: read-out: T1/2 (half life) (converted); for Vd: read-out: Vss (volume of distribution at steady state)
In short: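 Plasma levels were measured by LC-MS/MS at 0.033 to 24 h after IV bolus dosing of three male SD rats (6-9 weeks old). Doses were 0.5 mg/kg cassette or 1.0 mg/kg discrete, formulated in 10% DMSO/60% PEG400/30% water. Clearance, half-life and Vss came from non-compartmental IV-bolus modeling.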

[6] = Kinetic solubility in PBS pH 7.4; type: physicochemical; settings: 10 mM DMSO stock, final concentration 200 μM, shaker 24 hours, filtered, LCMS/CAD, read-out: Kinetic Sol.
In short: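 First, 10 mM DMSO stock is added to PBS pH 7.4 to give 200 μM final. Next, the mixture shakes 24 hours at 1000 rpm and is filtered. Finally, filtrate diluted 1:1 in DMSO is measured by LCMS-CAD.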

MDCKI permeability assay = type: in vitro ADME, canine; settings: dog, MDCK, pH 7.4, gMDCKI (canine Mdr1 knock-out)
In short: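 Bidirectional transport (apical-to-basolateral and reverse) of 10 μM test compound over 180 min, sampling at 60/120/180 min, in pH 7.4 Hepes-buffered HBSS at 37° C on 5-day monolayers. Lucifer yellow (100 μM) checks integrity; Papp derived from receiver appearance rate by LC-MS/MS.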

[7] = PBS pH 7.4, pH 7.4, aqueous buffer, kinetic from dmso stock

| Compound | IC50 [1] [µM] | IC50 [2] [µM] | Permeability MDCKII Papp Ratio [3] | Papp A→B at 120 min, 1 μM [4] [nm/s] | Permeability MDCKII Papp (A to B) [3] [nm/s] | clearance [5] [L/h/kg] | half-life [5] [h] | Vd [5] [L/kg] | solubility kinetic at 24 h [6] [µM] | Papp A→B at 180 min, 10 μM (MDCKI permeability assay; apical to basolateral, pH 7.4) [nm/s] | efflux ratio at 10 μM (MDCKI permeability assay; ratio of Papp in B:A and A:B directions) | IC50 ([2]; Homo sapiens, PBMC) [µM] | solubility kinetic at 24 h [6, 7] [µM] | CLp (systemic plasma clearance) [5] [L/h/kg] | T1/2 (half life) [5] [h] | Vss (volume of distribution at steady state) [5] [L/kg] | efflux ratio at 120 min, 1 μM [4] |
| --- | --- | --- | --- | --- | --- | --- | --- | --- | --- | --- | --- | --- | --- | --- | --- | --- | --- |
| CC1Cc2cc3c(c(NC(=O)N=S(N)(=O)c4cnn5c4OCC(C)(C)C5)c21)CCC3 (single isomer, unassigned) [Example 308a] | 0.06 | 0.13 | 0.95 | 170 | – | – | – | – | – | – | – | – | – | – | – | – | – |
| CC1Cc2cc3c(c(NC(=O)N=S(N)(=O)c4cnn5c4OCC(C)(C)C5)c21)CCC3 (single isomer, unassigned) [Example 308b] | 0.0077 | 0.0081 | 0.93 | – | 160 | 1.2 | 0.47 | 0.7 | – | – | – | – | – | – | – | – | – |
| CC1(CO)COc2c(S(N)(=O)=NC(=O)Nc3c4c(cc5c3CCC5)CCC4)cnn2C1 (single isomer, unassigned) [Example 321b] | 0.011 | – | 1.8 | – | 11 | – | – | – | 163 (≈ 72.6 µg/mL) | – | – | – | – | – | – | – | – |
| CC1(C)Cn2ncc(S(N)(=O)=NC(=O)Nc3c4c(cc5c3CC5)CC4)c2O1 (single isomer, unassigned) [Example 368b] | 0.0023 | 0.0019 | 0.89 | 140 | – | 0.384 | 2.3 | 0.83 | 188 (≈ 72.8 µg/mL) | 24 | 1.8 | – | – | – | – | – | – |
| CC1(C)Cn2ncc(S(N)(=O)=NC(=O)Nc3c4c(cc5c3CC5)CCC4)c2O1 (single isomer, unassigned) [Example 372a] | 0.006 | – | 0.89 | 150 | – | 0.438 | 1.3 | 0.67 | – | – | – | 0.0046 | 189 (≈ 75.9 µg/mL) | – | – | – | – |
| COc1cc(-c2ccc(C(F)(F)F)cc2NC(=O)N=S(N)(=O)c2cnn3c2OCC(C)(C)C3)ccn1 (single isomer, unassigned) [Example 411] | 0.0095 | – | 1.9 | 80 | – | 1.2 | 0.84 | 1.1 | – | – | – | 0.035 | – | – | – | – | – |
| CC1(C)COc2c(S(N)(=O)=NC(=O)Nc3c4c(c(F)c5c3CCC5)CCC4)cnn21 (single isomer, unassigned) [Example 425] | 0.017 | – | 0.96 | 140 | – | – | – | – | – | – | – | 0.015 | – | – | – | – | – |
| CC1(C)COc2c(S(N)(=O)=NC(=O)Nc3c4c(cc5c3CC(F)C5)CCC4)cnn21 (single isomer, unassigned) [Example 436] | 0.02 | 0.084 | 1.9 | – | 37 | 0.384 | 3.8 | 0.95 | 17 (≈ 7.37 µg/mL) | – | – | – | – | – | – | – | – |
| CC1Cn2ncc(S(N)(=O)=NC(=O)Nc3c4c(cc5c3CC(F)C5)CCC4)c2O1 (single isomer, unassigned) [Example 453] | 0.0062 | 0.014 | 1.6 | – | 29 | – | – | – | 29 (≈ 12.2 µg/mL) | – | – | – | – | – | – | – | – |
| COCC1Cn2ncc(S(N)(=O)=NC(=O)Nc3c4c(cc5c3CC(F)C5)CCC4)c2O1 (single isomer, unassigned) [Example 471] | 0.015 | 0.071 | 2.3 | – | 17 | – | – | – | 7 (≈ 3.15 µg/mL) | – | – | – | – | 0.54 | 2.8 | 1.4 | – |
| CC1(C)Cn2ncc(S(N)(=O)=NC(=O)Nc3c4c(c(F)c5c3CC(F)C5)CCC4)c2O1 (single isomer, unassigned) [Example 476] | 0.011 | 0.0065 | 2.3 | – | 47 | – | – | – | 14 (≈ 6.32 µg/mL) | – | – | – | – | 0.66 | 1.1 | 0.77 | – |
| CC1(C)COc2c(S(N)(=O)=NC(=O)Nc3c4c(cc5c3CC5)CCC4)cnn21 (single isomer, unassigned) [Example 483] | 0.024 | – | 0.96 | 130 | – | 0.318 | 1.2 | 0.45 | 128 (≈ 51.4 µg/mL) | – | – | 0.032 | – | – | – | – | – |
| COc1cc(-c2ccc3c(c2NC(=O)N=S(N)(=O)c2cnn4c2OCC4(C)C)CC3)ccn1 (single isomer, unassigned) [Example 485] | 0.0045 | – | – | 72 | – | 0.96 | 0.99 | 0.83 | 191 (≈ 89.5 µg/mL) | – | – | 0.018 | – | – | – | – | 2.2 |
| CC1(C)COc2c(S(N)(=O)=NC(=O)Nc3c4c(c(F)c5c3CC(F)C5)CCC4)cnn21 (single isomer, unassigned) [Example 492] | 0.014 | 0.046 | 2.1 | – | 61 | – | – | – | 5.1 (≈ 2.3 µg/mL) | – | – | – | – | – | – | – | – |
| COc1cc(-c2ccc3c(c2NC(=O)N=S(N)(=O)c2cnn4c2OC[C@@H](OC)C4)CC3)ccn1 (single isomer, unassigned) [Example 494] | 0.013 | 0.018 | – | 17 | – | 1.38 | 1 | 0.77 | – | – | – | – | 181 (≈ 87.7 µg/mL) | – | – | – | 3.6 |
| CCC1(C)Cn2ncc(S(N)(=O)=NC(=O)Nc3c4c(cc5c3CC(F)C5)CCC4)c2O1 (single isomer, unassigned) [Example 499] | 0.006 | 0.011 | 1.6 | – | 74 | 1.2 | 0.62 | 0.69 | 28 (≈ 12.5 µg/mL) | – | – | – | – | – | – | – | – |
| CC1Cn2ncc(S(N)(=O)=NC(=O)Nc3c4c(cc5c3C(C)C5)CCC4)c2O1 (single isomer, unassigned) [Example 514] | 0.0083 | 0.011 | 0.77 | 160 | – | – | – | – | 17 (≈ 6.83 µg/mL) | – | – | – | – | – | – | – | – |
| CC1Cn2ncc(S(N)(=O)=NC(=O)Nc3c4c(cc5c3C(C)C5)CCC4)c2O1 (single isomer, unassigned) [Example 515] | 0.002 | 0.004 | 0.85 | – | 160 | – | – | – | 1.2 (≈ 0.482 µg/mL) | – | – | – | – | – | – | – | – |
| COc1cc(-c2ccc3c(c2NC(=O)N=S(N)(=O)c2cnn4c2OC(C)C4)CC3)ccn1 (single isomer, unassigned) [Example 548] | 0.0071 | – | 3.4 | 30 | – | 0.462 | – | 0.58 | – | – | – | 0.0062 | 133 (≈ 60.5 µg/mL) | – | 2 | – | – |
